Assay results: patent publication US11485701B2, “Insect repellent compounds and compositions, and methods thereof” (Iowa State University Research Foundation, Inc., priority 2016, dated 2022)
Structures can show the parent of a compound that is named as a salt.

Key:
[1] = system: Northern house mosquitoes (Culex pipiens); experiment: Short-term spatial repellency, static air repellency chamber; assay type: in vivo; settings: Culex pipiens
Experimental: (§1) Northern house mosquitoes (Culex pipiens), a primary carrier of West Nile virus in eastern North America, were obtained from an established colony in the Medical Entomology Laboratory in the Department of Entomology at Iowa State University of Science and Technology, Ames Iowa. Mosquito rearing was performed by established protocols that are maintained by the Medical Entomology Laboratory. Repellency bioassays were performed with adult female mosquitoes that emerged 5-7 days previously. […] Mosquitoes, prior to testing, were held at 27° C., 80% relative humidity, and on a 16:8 hr light:dark photoperiod.
Repellency bioassays were performed using a static air repellency chamber, which has been described in various publications by the Pesticide Toxicology Laboratory at Iowa State University of Science and Technology, Ames, Iowa Briefly, a 9-cm×60-cm glass tube was used to monitor the distribution of mosquitoes at 15 min, 30 min, 60 min, 90 min, 120 min, and 150 min after introducing mosquitoes into the static air repellency chamber. […] One end of the spatial chamber contained a treated filter paper, whereas the other (untreated) end of the spatial chamber was not treated with compound. Controls contained filter papers treated with acetone, the solvent used to make the 0.5% solutions. Each end of the repellency chamber was secured with a 100-mm Petri dish using celluloid tape. After securing the petri dishes with corresponding treated or untreated filter papers to the spatial chamber, mosquitoes were anesthetized with carbon dioxide, and approximately 20 female mosquitoes were placed into each repellency chamber for one replicate. The opening of the spatial repellency chamber was secured with celluloid tape to prevent their escape. Chambers were oriented in opposite directions from the previous replicate to account for any directional effect. Four replicates were performed for data analysis for both the control and treatment groups.
(§2) Data for spatial repellency, the percentage repellency, is reported at each of the respective time points in the figures and tables mentioned below. The percentage spatial repellency is the examination of the distribution of mosquitoes and is calculated using the following equation: […]

[2] = system: Northern house mosquitoes (Culex pipiens); experiment: Long-term spatial repellency, static air repellency chamber, filter papers air-dried 5 hours; assay type: in vivo; settings: for pest or weed control at 0.5 %: Culex pipiens
Experimental: as §1, with “were” for “emerged”, “post-emergent.” for “previously.”
Repellency bioassays were performed using a static air repellency chamber, which has been described in various publications by the Pesticide Toxicology Laboratory at Iowa State University of Science and Technology, Ames, Iowa Briefly, a 9-cm×60-cm glass tube was used to monitor the distribution of mosquitoes at 15 min, 30 min, 60 min, 90 min, 120 min, and 150 min after introducing mosquitoes into the static air repellency chamber. Treated filter papers were treated with 1 mL of 0.5% solution in acetone of the terpenoid analogs created in the lab and were exposed to ambient air for 5 hours before they were introduced into the spatial chamber for testing. This is a slight modification of the method described in Example 2, so as to evaluate the residual repellent character of these compounds on a treated surface after 5 hours. One end of the spatial chamber contained a treated filter paper, whereas the other (untreated) end of the spatial chamber was not treated with compound. Controls contained filter papers treated with acetone, the solvent used to make the 0.5% solutions. Each end of the repellency chamber was secured with a 100-mm Petri dish using celluloid tape. After securing the petri dishes with corresponding treated or untreated filter papers to the spatial chamber, mosquitoes were anesthetized with carbon dioxide, and approximately 20 female mosquitoes were placed into each repellency chamber for one replicate. The opening of the spatial repellency chamber was secured with celluloid tape to prevent their escape. Chambers were oriented in opposite directions from the previous replicate to account for any directional effect. Four replicates were performed for data analysis for both the control and treatment groups.
as §2, with “below in this disclosure.” for “below.”

[3] = 0.25 h, filter paper, 1 mL of 0.5% solution in acetone, air-dried 15 min, 15 min after introduction, read-out: Short-term Percentage repellency 15 min
[4] = 1.5 h, filter paper, 1 mL of 0.5% solution in acetone, air-dried 15 min, 90 min, read-out: Short-term Percentage repellency 90 min
[5] = 2.5 h, filter paper, 1 mL of 0.5% solution in acetone, air-dried 15 min, 150 min, read-out: Short-term Percentage repellency 150 min
[6] = 0.25 h, 1 mL of 0.5% solution in acetone, air-dried 5 hours, 15 min, read-out: Long-term Percentage repellency 15 min
[7] = 1.5 h, 1 mL of 0.5% solution in acetone, air-dried 5 hours, 90 min, read-out: Long-term Percentage repellency 90 min
[8] = 2.5 h, 1 mL of 0.5% solution in acetone, air-dried 5 hours, 150 min, read-out: Long-term Percentage repellency 150 min

Row | SMILES | pest or weed control at 0.5 % [1, 3] [%] | pest or weed control at 0.5 % [1, 4] [%] | pest or weed control at 0.5 % [1, 5] [%] | pest or weed control at 0.5 % [2, 6] [%] | further results
1 | Cc1ccc(C(C)C)c(OC(=O)CC(C)C)c1 [Compound 1055B, thymyl isovalerate] | 12.5 | 65 | 77.5 | 0 | pest or weed control at 0.5 % [2, 7]: 22.5%; pest or weed control at 0.5 % [2, 8]: 27.5%
2 | CC(C)=CCCC(C)CCOC(=O)C(F)F (stereo not drawn) [Compound 2192, citronellyl difluoroacetate] | – | – | – | – | pest or weed control at 0.5 % ([1]; 0.25 h, read-out: Short-term Percentage repellency 15 min): 42.5%; pest or weed control at 0.5 % ([1]; 1.5 h, read-out: Short-term Percentage repellency 90 min): 95%; pest or weed control at 0.5 % ([1]; 2.5 h, read-out: Short-term Percentage repellency 150 min): 95%; pest or weed control at 0.5 % ([2]; 0.25 h, read-out: Long-term Percentage repellency 15 min): 50%; pest or weed control at 0.5 % ([2]; 1.5 h, read-out: Long-term Percentage repellency 90 min): 72.5%; pest or weed control at 0.5 % ([2]; 2.5 h, read-out: Long-term Percentage repellency 150 min): 65%
3 | CC(=O)CCC(=O)OCCC(C)CCC=C(C)C (stereo not drawn) [Compound 2183, citronellyl levulinate] | 35 | 45 | 55 | 35 | pest or weed control at 0.5 % [2, 7]: 45%; pest or weed control at 0.5 % [2, 8]: 55%
4 | CC(C)=CCCC(C)CCOC(=O)CC(C)C (stereo not drawn) [Compound 1034B, citronellyl isovalerate] | 17.5 | 77.5 | 82.5 | 30 | pest or weed control at 0.5 % [2, 7]: 30%; pest or weed control at 0.5 % [2, 8]: 32.5%
5 | CC(C)=CCC/C(C)=C/COC(=O)C1CC1 [Compound 2023A, geranyl cyclopropanecarboxylate] | 45 | 42.5 | 45 | 45 | Long-term repellency, in words ([2]; 0.5% solution, air-dried 5 hours): much greater than DEET; Long-term percentage repellency 60 min ([2]; 0.5% solution, air-dried 5 hours, 60 minutes): 47.5%; pest or weed control at 0.5 % [2, 7]: 42.5%; pest or weed control at 0.5 % [2, 8]: 45%
6 | CC(C)=CCCC(C)CCOC(=O)C1CC(C)C1 (stereo not drawn) [Compound 3068, citronellyl 3-methylcyclobutanecarboxylate] | 22.5 | 32.5 | 42.5 | 22.5 | pest or weed control at 0.5 % [2, 7]: 32.5%; pest or weed control at 0.5 % [2, 8]: 42.5%
7 | CC(C)=CCCC(C)CC(=O)OCC1(C)COC1 (stereo not drawn) [Compound 3070, (3-methyloxetan-3-yl) methyl citronellate] | 15 | 42.5 | 32.5 | – | –
8 | CC(C)=CCCC(C)CCOC(=O)CC#N (stereo not drawn) [Compound 2198, citronellyl cyanoacetate] | 37.5 | 32.5 | 40 | – | –
9 | CC(C)=CCCC(C)CCOC(=O)C(C)(C)F (stereo not drawn) [Compound 2208, citronellyl 2-fluoroisobutyrate] | 37.5 | 75 | 77.5 | – | –
10 | Cc1cc(OC(=O)C(C)C)c(C(C)C)cc1Cl [Compound 1144B, chlorothymyl isobutyrate] | 40 | 77.5 | 87.5 | – | –
11 | CC(C)=CCCC(C)CC(=O)OC1COC1 (stereo not drawn) [Compound 3071, 3-oxetanyl citronellate] | 2.5 | 37.5 | 40 | – | –
12 | CC(C)=CCCC(C)CC(=O)OCCO (stereo not drawn) [Compound 1052, 2-hydroxyethyl citronellate] | 77.5 | 92.5 | 82.5 | – | –
13 | C=C(C)C1CC=C(COC(=O)C2CCC2)CC1 (stereo not drawn) [Compound 2033, perillyl cyclobutanecarboxylate] | – | – | – | 27.5 | –
14 | CC(C)=CCCC(C)CCOC(=O)C(C)(F)F (stereo not drawn) [Compound 2232, citronellyl 2,2-difluoropropanoate] | 50 | 82.5 | 82.5 | – | –
15 | Cc1ccc(C(C)C)cc1OC=O [Compound 1107B, carvacryl formate] | – | – | – | 30 | pest or weed control at 0.5 % [2, 7]: 37.5%; pest or weed control at 0.5 % [2, 8]: 42.5%
16 | CC1=CCC(C(C)(C)OC(=O)CC(C)C)CC1 (stereo not drawn) [Compound 2257, alpha-terpinyl isovalerate] | 10 | 55 | 65 | – | –
17 | Cc1cc(OC(=O)C2CC2)c(C(C)C)cc1[N+](=O)[O-] [Compound 1066B, 4-nitrothymyl cyclopropanecarboxylate] | 37.5 | 57.5 | 70 | – | –
18 | CC(C)=CCC/C(C)=C/C(=O)OCC1CC1 [Compound 2020, cyclopropylmethyl geranate] | – | – | – | 40 | pest or weed control at 0.5 % [2, 7]: 45%; pest or weed control at 0.5 % [2, 8]: 40%
19 | CC(C)=CCCC(C)CC(=O)OCC1CCC1 (stereo not drawn) [Compound 2026, cyclobutylmethyl citronellate] | 25 | 37.5 | 25 | – | –
20 | CC(C)=CCCC(C)CC(=O)OCCO (stereo not drawn) [Compound 1052S3, 2-hydroxyethyl citronellate] | – | – | – | 37.5 | pest or weed control at 0.5 % [2, 7]: 65%; pest or weed control at 0.5 % [2, 8]: 75%
21 | CC(C)=CCC/C(C)=C/COC(=O)CC(C)C [Compound 2255A, geranyl isovalerate] | 35 | 60 | 52.5 | – | –
22 | CC(C)=CCCC(C)CCOC=O (stereo not drawn) [Compound 1089, citronellyl formate] | 77.5 | 92.5 | 90 | – | –
23 | C#CC(C)(C)OC(=O)CC(C)CCC=C(C)C (stereo not drawn) [Compound 2171, 1,1-dimethylpropargyl citronellate] | 37.5 | 67.5 | 62.5 | – | –
24 | C=C(C)CCOC(=O)CC(C)CCC=C(C)C (stereo not drawn) [Compound 2168, isoprenyl citronellate] | 27.5 | 62.5 | 72.5 | – | –
25 | CC(C)=CCCC(C)CCOC(=O)Cc1cccs1 (stereo not drawn) [Compound 2244, citronellyl thiophen-2-ylacetate] | 32.5 | 45 | 55 | – | –
26 | C=CC(C)(CCC=C(C)C)OC(=O)CC(C)C (stereo not drawn) [Compound 2152, linalyl isovalerate] | 15 | 82.5 | 92.5 | – | –
27 | CC(C)=CCCC(C)CCOC(=O)CC(F)(F)F (stereo not drawn) [Compound 2235, citronellyl 3,3,3-trifluoropropanoate] | 12.5 | 62.5 | 77.5 | – | –
